Read-outs that look alike come from different tables or passages of the source.
Columns and labels:
Type in all cases: cell-based
BRD4 = target: T1, BRD4 (Homo sapiens, UniProt O60885); assay: Down-regulation/degradation of BRD4 determined by Western blot in CWR22RV1 cells; settings: concentration 100 nM, 24 h
T1 construct: CWR22RV1 cells were subcultured in cell culture media; endogenous in cells; host or cells: CWR22RV1 cells
Experimental: (§1) The Down-Regulation on the Protein Expression of Androgen Receptors AR and Brd4 Determined by Western Blot CWR22RV1 cells (National Collection of Authenticated Cell Cultures. TCHu100) FBS (Gibco, Cat. No. 10099-141) 0.01M PBS (Biosharp. Cat. No. 162262) RIPM1640 (Hyclone, Cat. No. 308090.01) Penicillin-Streptomycin (Hyclone. Cat. No. SV30010) DMSO (Sigma. Cat. No. D5879) Centrifuge tube, 15 ml (Excell Bio. Cat. No. CS015-0001) Cell culture plate (Excell Bio. Cat. No. CS016-0128) 6-well cell culture cluster (Corning, Cat. No. 3516) RIPA lysate buffer (Beyotime, Cat. No. P0013B) Protein loading buffer (Beyotime, Cat. No. P0015L) CA protein assay kit (Beyotime, Cat. No. P0012) SDS-PAGE gel preparation kit (Chengdu Baihe Technology Co., Ltd. Cat. No. PG112) Anti-β-tubulin mouse mAb (Zen Bioscience, Cat. No. 200608) Androgen Receptor ([…]) XP Rabbit mAb (CST. Cat. No. 5153) Anti-cMyc(D3N8F) Rabbit mAb (CST. Cat. No. 13987) Anti-BRD4(E2A7X) rabbit mAb (CST, Cat. No. 13440) Peroxidase Affinipure(HRP) Goat Anti-Mouse IgG (Zen Bioscience, Cat. No. 511103) Peroxidase Affinipure(HRP) Goat Anti-Rabbit IgG (Zen Bioscience, Cat. No. 511203) TBST (Biosharp. Cat. No. B[…]) ECL chemiluminescence kit (Beyotime, Cat. No. […]1 cells were subcultured in cell culture media, and then the cells in good growth condition were seeded in a 6-well plate at 2 ml/well (1×10^6 cells/well), and cultured overnight in a 37° C., 5% CO2 cell incubator. 2) The drug was prepared as a 10 mM stock solution with dimethyl sulfoxide (DMSO). […] The plate was gently tapped to thoroughly mix. In addition, the experiment included negative control wells (containing equal amount of DMSO) and positive control wells. 3) After culturing 24 hi, the cells were lysed with RIPA cell lysate, and the protein was extracted. […] The first antibody (Androgen Receptor ([…]) XP Rabbit mAb. Anti-cMyc(D3N8F) Rabbit mAb, Anti-BRD4(E2A7X) rabbit mAb and Anti-β-Tubulin Mouse mAb) was added and incubated overnight at 4° C. The membrane was rinsed with TBST solution three times, 10 min for each time. The secondary antibody (horseradish peroxidase labeled goat anti mouse IgG) was added and incubated at room temperature for 2 h, and then the membrane was washed with TBST solution three times, 10 m for each time. Finally. ECL chemiluminescence solution was added, and then photos were taken with automatic chemiluminescence instrument to collect pictures for analysis.

22RV1 cells = assay: Inhibition of the proliferation of drug-resistant prostate cancer cell 22RV1 (CCK-8); settings: 22RV1 cells (enzalutamide-resistant), same method
How it was run: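 22RV1 cells, 1000/well in RPMI1640 with 10% FBS, treated in duplicate with 9-point 3-fold dilutions from 10 μM (0.1% DMSO final). After 6 days at 37 °C, CCK-8 added for 1 h and OD450 read. IC50 from dose-response inhibition fit.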

LNCaP/AR cells = assay: Inhibition of the proliferation of LNCap/AR cells (CCK-8); settings: LNCaP/AR cells, 6 days culture, CCK-8, read-out: LNCap/AR IC50
How it was run: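 LNCaP/AR cells (1000/well, RPMI1640 + 10% FBS) were treated for 6 days at 37 °C with 9-point 3-fold dilutions from 10 μM final, 0.1% DMSO, in duplicate. Viability was read by CCK-8 absorbance at 450 nm after 1 h, and IC50 came from a dose-response-inhibition fit.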

Androgen receptor (AR) = assay: Down-regulation/degradation of AR determined by Western blot in CWR22RV1 cells; settings: concentration 100 nM, 24 h
Experimental: as §1

IC50 (22RV1 cells; Homo sapiens) [nM] | IC50 (LNCaP/AR cells; 144 h) [nM] | IC50 (22RV1 cells) [nM] | IC50 (LNCaP/AR cells) [nM] | Compound | BRD4 (% degradation) (BRD4) | AR (% degradation) (Androgen receptor (AR))
< 100 | 501 to 2000 | – | – | Cc1ccc(-c2c(C)noc2C)cc1N(CC(C)OC1CCN(c2ccc3c(c2)C(=O)N(C2CCC(=O)NC2=O)C3=O)CC1)c1ccc(C2(C#N)CC2)cc1 (stereo not shown) [Compound 106] | B (79%-50% of the target protein was degraded) | C (49%-20% of the target protein was degraded)
101 to 500 | > 2000 | – | – | Cc1ccc(-c2c(C)noc2C)cc1N(CCOC1(C)CN(c2cc3c(cc2F)C(=O)N(C2CCC(=O)NC2=O)C3=O)C1)c1ccc(C2(C#N)CC2)cc1 (stereo not shown) [Compound 111, 1-(4-((5-(3,5-Dimethylisoxazol-4-yl)-2-methylphenyl)(2-((1-(2-(2,6-dioxopiperidin-3-yl)-6-fluoro-1,3-dioxoisoindolin-5-yl)-3-methylazetidin-3-yl)oxy)ethyl)amino)phenyl)cyclopropanecarbonitrile] | D (<20% of the target protein was degraded) | D (<20% of the target protein was degraded)
501 to 2000 | 501 to 2000 | – | – | Cc1ccc(-c2c(C)noc2C)cc1N(CCOC1(C)CN(c2cc3c(cc2F)C(=O)N(C2CCC(=O)NC2=O)C3)C1)c1ccc(C2(C#N)CC2)cc1 (stereo not shown) [Compound 113, 1-(4-((5-(3,5-Dimethylisoxazol-4-yl)-2-methylphenyl)(2-((1-(2-(2,6-dioxopiperidin-3-yl)-6-fluoro-1-oxoisoindolin-5-yl)-3-methylazetidin-3-yl)oxy)ethyl)amino)phenyl)cyclopropanecarbonitrile] | C (49%-20% of the target protein was degraded) | D (<20% of the target protein was degraded)
< 100 | 501 to 2000 | – | – | Cc1ccc(-c2c(C)noc2C)cc1N(CC1CCN(CCNc2ccc3c(c2)C(=O)N(C2CCC(=O)NC2=O)C3=O)CC1)c1ccc(C2(C#N)CC2)cc1 (stereo not shown) [Compound 117] | B (79%-50% of the target protein was degraded) | D (<20% of the target protein was degraded)
< 100 | 101 to 500 | – | – | Cc1ccc(-c2c(C)noc2C)cc1N(CCCOC1CN(c2cc3c(cc2F)C(=O)N(C2CCC(=O)NC2=O)C3=O)C1)c1ccc(C2(C#N)CC2)cc1 (stereo not shown) [Compound 120, 1-(4-((5-(3,5-dimethylisoxazol-4-yl)-2-methylphenyl)(3-((1-(2-(2,6-dioxopiperidin-3-yl)-6-fluoro-1,3-dioxoisoindol-5-yl)azetidin-3-yl)oxy)propyl)amino)phenyl)cyclopropane-1-carbonitrile] | B (79%-50% of the target protein was degraded) | D (<20% of the target protein was degraded)
501 to 2000 | 501 to 2000 | – | – | Cc1ccc(-c2c(C)noc2C)cc1N(CCCOC1CN(c2cc3c(cc2F)CN(C2CCC(=O)NC2=O)C3=O)C1)c1ccc(C2(C#N)CC2)cc1 (stereo not shown) [Compound 123, 1-(4-((5-(3,5-dimethylisoxazol-4-yl)-2-methylphenyl)(3-((1-(2-(2,6-dioxopiperidin-3-yl)-6-fluoro-3-oxoisoindolin-5-yl)azetidin-3-yl)oxy)propyl)amino)phenyl)cyclopropane-1-nitrile] | C (49%-20% of the target protein was degraded) | D (<20% of the target protein was degraded)
< 100 | 101 to 500 | – | – | Cc1ccc(-c2c(C)noc2C)cc1N(CCCOC1CN(c2cc3c(cc2F)C(=O)N(C2CCC(=O)NC2=O)C3)C1)c1ccc(C2(C#N)CC2)cc1 (stereo not shown) [Compound 124, 1-(4-((5-(3,5-dimethylisoxazol-4-yl)-2-methylphenyl)(3-((1-(2-(2,6-dioxopiperidin-3-yl)-6-fluoro-1-oxoisoindolin-5-yl)azetidin-3-yl)oxy)propyl)amino)phenyl)cyclopropane-1-nitrile] | B (79%-50% of the target protein was degraded) | B (79%-50% of the target protein was degraded)
101 to 500 | 101 to 500 | – | – | Cc1ccc(-c2c(C)noc2C)cc1N(CC1CCN(c2cc3c(cc2F)CN(C2CCC(=O)NC2=O)C3=O)CC1)c1ccc(C2(C#N)CC2)cc1 (stereo not shown) [Compound 127, 1-(4-((5-(3,5-dimethylisoxazol-4-yl)-2-methylphenyl)((1-(2-(2,6-dioxopiperidin-3-yl)-6-fluoro-3-oxoisoindolin-5-yl)piperidin-4-yl)methyl)amino)phenyl)cyclopropane-1-nitrile] | B (79%-50% of the target protein was degraded) | D (<20% of the target protein was degraded)
101 to 500 | 501 to 2000 | – | – | Cc1ccc(-c2c(C)noc2C)cc1N(CC1CCN(c2cc3c(cc2F)C(=O)N(C2CCC(=O)NC2=O)C3)CC1)c1ccc(C2(C#N)CC2)cc1 (stereo not shown) [Compound 128, 1-(4-((5-(3,5-dimethylisoxazol-4-yl)-2-methylphenyl)((1-(2-(2,6-dioxopiperidin-3-yl)-6-fluoro-1-oxoisoindolin-5-yl)piperidin-4-yl)methyl)amino)phenyl)cyclopropane-1-nitrile] | C (49%-20% of the target protein was degraded) | D (<20% of the target protein was degraded)
< 100 | 101 to 500 | – | – | Cc1ccc(-c2c(C)noc2C)cc1N(CCC1CN(c2cc3c(cc2F)C(=O)N(C2CCC(=O)NC2=O)C3=O)C1)c1ccc(C2(C#N)CC2)cc1 (stereo not shown) [Compound 129, 1-(4-((5-(3,5-Dimethylisoxazol-4-yl)-2-methylphenyl)(2-(1-(2-(2,6-dioxopiperidin-3-yl)-6-fluoro-1,3-dioxoisoindolin-5-yl)azetidin-3-yl)ethyl)amino)phenyl)cyclopropane-1-carbonitrile] | B (79%-50% of the target protein was degraded) | C (49%-20% of the target protein was degraded)
– | – | < 100 | < 100 | Cc1ccc(-c2c(C)noc2C)cc1N(C[C@H]1CC[C@H](CNc2cc3c(cc2F)C(=O)N(C2CCC(=O)NC2=O)C3=O)CC1)c1ccc(C#N)c(Cl)c1 (stereo partly shown) [Compound 131] | A (>80% of the target protein was degraded) | C (49%-20% of the target protein was degraded)
– | – | < 100 | < 100 | Cc1ccc(-c2c(C)noc2C)cc1N(C[C@H]1CC[C@H](CNc2cc3c(cc2F)C(=O)N(C2CCC(=O)NC2=O)C3)CC1)c1ccc(C#N)c(Cl)c1 (stereo partly shown) [Compound 135] | A (>80% of the target protein was degraded) | C (49%-20% of the target protein was degraded)
> 2000 | > 2000 | – | – | Cc1ccc(-c2c(C)noc2C)cc1N(CC1(COC2CN(c3ccc4c(c3)C(=O)N(C3CCC(=O)NC3=O)C4=O)C2)CC1)c1ccc(C2(C#N)CC2)cc1 (stereo not shown) [Compound 137, 1-(4-((5-(3,5-Dimethylisoxazol-4-yl)-2-methylphenyl)((1-(((1-(2-(2,6-dioxopiperidin-3-yl)-1,3-dioxoisoindolin-5-yl)azetidin-3-yl)oxy)methyl)cyclopropyl)methyl)amino)phenyl)cyclopropane-1-nitrile] | B (79%-50% of the target protein was degraded) | C (49%-20% of the target protein was degraded)

— patent US20220257774A1, “AROMATIC AMINE AR AHD BET TARGETING PROTEIN DEGRADATION CHIMERA COMPOUND AND USE” (HINOVA PHARMACEUTICALS INC., priority 2019, published 2022)
